Experimental data as given in ChEMBL document CHEMBL6096728, “Simultaneous Induction of Immunogenic Pyroptosis and PD-L1 Downregulation by One Single Photosensitizer for Synergistic Cancer Photoimmunotherapy” (J Med Chem, 2025).
Active and inactive are the calls of the source. The calls are words filed in the database; no cut-off is given here.

Key:
[1] = tested on: MDA-MB-231; experiment: Photocytotoxicity in human MDA-MB-231 cells assessed as cell viablity incubated for 24 hrs under light irradiation of 50 mW.cm/2 at 400 to 700nm measured after 10 mins in normoxia condition by CCK-8 method; type: functional, cell-based; settings: MDA-MB-231, light or radiation study
[2] = tested on: MDA-MB-231; experiment: Induction of pyroptosis in human MDA-MB-231 cells assessed as formation of bubble-like protrusion on plasma membrane at 0.25 uM preincubated with compound for 12 hrs followed by light irradiation of 20 mW.cm/2 at 400 to 700nm for 10 mins by microscopy analysis; type: functional, cell-based
[3] = tested on: MDA-MB-231; experiment: Induction of pyroptosis mediated immunogenic cell death in human MDA-MB-231 cells assessed as increase in HMGB1 release at 0.5 uM incubated for 12 hrs under light irradiation of 20 mW.cm/2 at 400 to 700nm for 10 mins; type: functional, cell-based
[4] = tested on: 4T1; experiment: Induction of pyroptosis in mouse 4T1 cells assessed as appearance of large bubbles in cell at 0.5 uM preincubated with compound for 4 hrs followed by light irradiation of 20 mW.cm/2 at 400 to 700nm for 10 mins by confocal fluorescence microscopy analysis; type: functional, cell-based
[5] = Toxicity in BALB/c mouse assessed as effect on hemoglobin at 25 mg/kg, iv measured after 14 days; type: organism-based; settings: in vivo, 336 h, time 14 day
[6] = Toxicity in BALB/c mouse assessed as effect on WBC at 25 mg/kg, iv measured after 14 days; type: organism-based; settings: in vivo, 336 h, time 14 day
[7] = Toxicity in BALB/c mouse assessed as effect on liver at 25 mg/kg, iv measured after 14 days under light irradiation of 300 mW.cm/2 at 400 to 700nm measured after 5 mins; type: organism-based; settings: in vivo, 336 h, 0.7 µM, time 14 day
[8] = Toxicity in BALB/c mouse assessed as effect on tumor at 25 mg/kg, iv measured after 14 days under light irradiation of 300 mW.cm/2 at 400 to 700nm measured after 5 mins by H and E staining based analysis; type: organism-based; settings: in vivo, 336 h, 0.7 µM, time 14 day
[9] = tested on: MDA-MB-231; experiment: Induction of pyroptosis mediated immunogenic cell death in human MDA-MB-231 cells assessed as increase in CRT exposure on cell membrane at 0.5 uM incubated for 12 hrs under light irradiation of 20 mW.cm/2 at 400 to 700nm for 10 mins; type: functional, cell-based
[10] = tested on: MDA-MB-231; experiment: Photocytotoxicity in human MDA-MB-231 cells assessed as reduction in 3D multicellular spheroids diameter at 0.5 to 1 uM incubated for 24 hrs under light irradiation of 50 mW.cm/2 at 400 to 700nm measured after 10 mins in normoxia condition; type: functional, cell-based; settings: dose 0.5-1 µM
[11] = Toxicity in BALB/c mouse assessed as effect on tumor at 25 mg/kg, iv measured after 14 days by H and E staining based analysis; type: organism-based; settings: in vivo, 336 h, time 14 day
[12] = Aqueous solubility of the compound by UV-vis absorption analysis; type: physicochemical; settings: water
[13] = tested on: 4T1; experiment: Induction of cell death in mouse 4T1 cells assessed as decrease in green fluorescence at 0.5 uM incubated for 24 hrs followed by light irradiation of 20 mW.cm/2 at 400 to 700nm for 10 mins by Calcein-AM/PI staining based analysis; type: functional
[14] = tested on: 4T1; experiment: Antitumor activity against mouse 4T1 cells implanted in BALB/c mouse model assessed as reduction in tumor volume at 25 mg/kg, iv measured after 14 days; type: functional, organism-based; settings: time 14.0 day
[15] = Toxicity in BALB/c mouse assessed as effect on spleen at 25 mg/kg, iv measured after 14 days by H and E staining based analysis; type: organism-based; settings: in vivo, 336 h, time 14 day
[16] = Toxicity in BALB/c mouse assessed as effect on liver at 25 mg/kg, iv measured after 14 days by H and E staining based analysis; type: organism-based; settings: in vivo, 336 h, time 14 day
[17] = Phototoxicity against mouse 4T1 cells preincubated for 24 hrs followed by light irradiation of 20 mW.cm/2 at 400 to 700nm for 10 mins under hypoxia condition by CCK-8 method; type: functional, cell-based; settings: 4T1, light or radiation study
[18] = tested on: MDA-MB-231; experiment: Photocytotoxicity in human MDA-MB-231 cells assessed as reduction in 3D multicellular spheroids diameter at 0.5 to 1 uM incubated for 24 hrs under light irradiation of 50 mW.cm/2 at 400 to 700nm measured after 10 mins in hypoxia condition; type: functional, cell-based; settings: dose 0.5-1 µM
[19] = tested on: MDA-MB-231; experiment: (§1) Induction of intracellular ROS generation in human MDA-MB-231 cells assessed as increase in fluorescence intensity at 0.1 uM preincubated for 2 hrs followed by compound washout further incubated with DCFH-DA probe for 30 mins under light irradiation of 20 mW.cm/2 at 400 to 700nm measured after 10 mins by flow cytometry analysis; type: functional, cell-based
[20] = tested on: 4T1; experiment: as §1, with “generation in mouse 4T1 cells assessed” for “generation in human MDA-MB-231 cells assessed”, “10 mins in presence of tiron by flow” for “10 mins by flow”; type: functional, cell-based
[21] = tested on: 4T1; experiment: Downregulation of PD-L1 expression level in mouse 4T1 cells at 0.1 to 0.5 uM incubated for 24 hrs under light irradiation of 20 mW.cm/2 at 400 to 700nm for 10 mins by Western blot analysis; type: functional, cell-based; settings: dose 0.1-0.5 µM
[22] = tested on: MDA-MB-231; experiment: Induction of pyroptosis in human MDA-MB-231 cells assessed as cell swelling at 0.5 uM preincubated with compound for 4 hrs followed by light irradiation of 20 mW.cm/2 at 400 to 700nm for 10 mins by confocal fluorescence microscopy analysis; type: functional, cell-based
[23] = Toxicity in BALB/c mouse assessed as effect on lung at 25 mg/kg, iv measured after 14 days by H and E staining based analysis; type: organism-based; settings: in vivo, 336 h, time 14 day
[24] = Toxicity in BALB/c mouse assessed as effect on platelets at 25 mg/kg, iv measured after 14 days under light irradiation of 300 mW.cm/2 at 400 to 700nm measured after 5 mins; type: organism-based; settings: in vivo, 336 h, 0.7 µM, time 14 day
[25] = tested on: 4T1; experiment: Antitumor immunity against mouse 4T1 cells implanted in BALB/c mouse model assessed as upregulation of proportion of neutrophils in lymph node at 25 mg/kg, iv measured after 14 days under light irradiation of 300 mW.cm/2 at 400 to 700nm measured after 5 mins by flow cytometry analysis; type: functional, organism-based; settings: time 14.0 day
[26] = tested on: MDA-MB-468; experiment: Downregulation of PD-L1 expression level in human MDA-MB-468 cells at 0.1 to 0.5 uM incubated for 24 hrs under light irradiation of 20 mW.cm/2 at 400 to 700nm for 10 mins by Western blot analysis; type: functional, cell-based; settings: dose 0.1-0.5 µM
[27] = Toxicity in BALB/c mouse assessed as effect on WBC at 25 mg/kg, iv measured after 14 days under light irradiation of 300 mW.cm/2 at 400 to 700nm measured after 5 mins; type: organism-based; settings: in vivo, 336 h, time 14 day
[28] = Toxicity in BALB/c mouse assessed as effect on spleen at 25 mg/kg, iv measured after 14 days under light irradiation of 300 mW.cm/2 at 400 to 700nm measured after 5 mins; type: organism-based; settings: in vivo, 336 h, 0.7 µM, time 14 day
[29] = tested on: MDA-MB-231; experiment: Induction of pyroptosis in human MDA-MB-231 cells assessed as upregulation of caspase-3 expression level at 0.1 to 0.5 uM preincubated with compound for 12 hrs followed by light irradiation of 20 mW.cm/2 at 400 to 700nm for 10 mins by Western blot analysis; type: functional, cell-based; settings: dose 0.1-0.5 µM

solubility [12]: > 10 mM
Compound: O=c1cc2sc3cc(N4CCNCC4)ccc3nc-2c2ccccc12
IC50 [1]: 0.356 µM
Activity [2]: Active
Activity [3]: Active
Activity [4]: Active
Activity [5]: Non-toxic
Activity [6]: Non-toxic
Activity [7]: Non-toxic
Activity [8]: Toxic
Activity [9]: Active
Activity [10]: Active
Activity [11]: Toxic
Activity [13]: Active
Activity [14]: Active
Activity [15]: Non-toxic
Activity [16]: Non-toxic
IC50 [17]: 0.693 µM
Activity [18]: Active
Activity [19]: Active
Activity [20]: inactive
Activity [21]: Active
Activity [22]: Active
Activity [23]: Non-toxic
Activity [24]: Non-toxic
Activity [25]: Active
Activity [26]: Active
Activity [27]: Non-toxic
Activity [28]: Non-toxic
Activity [29]: Active
